The subject of one series is Male Sprague Dawley rats. Nature of the series: Test A. Loss of Righting Reflex Assay with dose escalation to maximum tolerated dose. The series is classed as in vivo. Conditions: rat; for Safety compared with propofol: doses escalated; for Potency compared with propofol: equal dose (7 mg/kg), 7 mg/kg. The text has this: The ability of a compound of the invention to produce an anesthetic effect (i.e. efficacy) can be determined using standard pharmacological models that are well known to the art. […] The potency of such a compound was compared to the potency of propofol using this assay.
The safety of a compound of the invention can be determined using standard pharmacological models that are well known to the art. […] The safety of such a compound was compared to that of propofol using this assay.
Male Sprague Dawley rats were restrained in a holder, and test compound or propofol was injected in the tail vein (based on milligrams (mg) compound per kilogram (kg) body weight). Following administration, the rats were placed in a dorsal recumbent position on a heating blanket. The time to onset for the loss of the Righting Reflex (RR-ability of rat to right itself) was recorded, as was the duration of the loss of the RR. Doses were escalated until the maximum tolerated doses were achieved.

In a further series the test system is pig. The experiment in a line: Test B. Anesthetized Pig Model (hemodynamic profile). The series is classed as in vivo. Conditions: 20 minute intravenous infusion, data in FIGS. 1 and 2. The procedure: The hemodynamic profile of a compound of the invention can be determined using standard pharmacological models that are well known to the art. The hemodynamic and anesthetic profiles of a compound of the invention can be evaluated simultaneously using an anesthetized pig model (as described in Test B below).
The anesthetic induction was performed using a modification of a technique described by Ko et al (Ko et al., Lab Anim Sci 1993; 43: 476-80) for swine (Telazol, xylazine and ketamine given as an intramuscular injection). The minimal effective dose for induction and tracheal intubation was used. […]
A compound of the invention or propofol was administered intravenously by a 20 minute infusion after the stabilization period through the peripheral IV catheter. […] Blood samples (1 mL each) were collected at pre-dose and at 2, 4, 6, 8, 10, 12, 15, 20, 22, […], 25, 35, 50, 65 and 80 minutes after the start of the first infusion for pharmacokinetic purposes; EEG were recorded continuously as the primary pharmacodynamic endpoint. […]
The EEG signal was fed to a BIS analyzer (Aspect Medical) which provided continuous output of processed EEG data. The output consisted of a “BIS” number calculated by a proprietary algorithm that ranges between 100 (fully conscious) and 0 (isoelectric) and indicated brain activity.
Hemodynamic data were recorded and plotted to assess trends over the drug exposure period. […]

“Also recorded” adds a separate entry of the source.

On to `CCC(CC)c1cccc(C(C)C)c1O` [2-(1-ethylpropyl)-6-isopropylphenol], for which the “Safety compared with propofol” value in the series on Male Sprague Dawley rats is listed as “greater safety compared to propofol; also recorded: improved safety”. In addition, the “Potency compared with propofol” value is “at least equivalent potency” with Male Sprague Dawley rats and “at least equivalent, if not greater, potency than propofol” in the series with Male Sprague Dawley rats (listed as 2-(1-Ethylpropyl)-6-isopropylphenol). Also, the “Outcome: deaths” value in the series with Male Sprague Dawley rats (tail vein bolus dose 7 mg/kg), in the series on Male Sprague Dawley rats (tail vein bolus dose 14 mg/kg) and in the series on Male Sprague Dawley rats (tail vein bolus dose 21 mg/kg) was 0/6 deaths each time. Besides, the “Outcome: minutes of sleep post bolus dose” value (“Outcome: minutes” below) in the series with Male Sprague Dawley rats (tail vein bolus dose 7 mg/kg) was 9.9 minutes of sleep post. Further, in the series on pig, the “Hemodynamic properties compared with propofol” value is reported as “improved hemodynamic properties”.

Consider `CC(C)c1cccc(C(C)C)c1O` [Propofol, 2,6-diisopropylphenol], for which the “Outcome: deaths” value is listed as 0/10 deaths in the series with Male Sprague Dawley rats (tail vein bolus dose 7 mg/kg), 6/10 deaths with Male Sprague Dawley rats (tail vein bolus dose 14 mg/kg) and 4/6 deaths with Male Sprague Dawley rats (tail vein bolus dose 21 mg/kg). Moreover, the “Outcome: minutes” value in the series on Male Sprague Dawley rats (tail vein bolus dose 7 mg/kg) is given as 7.1 minutes of sleep post.

Turning to `CC(C)c1cccc(C(C)C(C)C)c1O` (racemic) [2-(3-methyl)secbutyl-6-isopropylphenol], in the series on Male Sprague Dawley rats, the “Safety compared with propofol” value is “greater safety compared to propofol; also recorded: improved safety” and the “Potency compared with propofol” value is on record as “at least equivalent, if not greater potency than propofol; also recorded: at least equivalent potency”. Also, in the series with Male Sprague Dawley rats (tail vein bolus dose 7 mg/kg), the “Outcome: deaths” value is 0/6 deaths and the “Outcome: minutes” value is on record as 7.5 minutes of sleep post. Besides, in the series with Male Sprague Dawley rats (tail vein bolus dose 14 mg/kg), the “Outcome: deaths” value is 0/6 deaths. For the same compound, the “Outcome: deaths” value in the series with Male Sprague Dawley rats (tail vein bolus dose 21 mg/kg) is 0/6 deaths.
